According to patent US7521418B2, “Use of a polyene macrolide antifungal agent in combination with a glycopeptide antibacterial agent” (Theravance, Inc., priority 2003, dated 2009):

System: C. tropicalis ATCC 750
Test: Checkerboard MIC assay, FICI
Format: cell-based, Candida tropicalis
Details: combination with Compound 1; C. tropicalis ATCC 750
Source text: The following assay was used to determine the minimum inhibitory concentration (MIC) and fractional inhibitory concentration index (FICI) for combinations of an antifungal agent and a glycopeptide antibacterial agent. This assay and methods for calculating FICI are well known in the art. See, for example, Eliopoulos, E. G. and R. Moellering, Jr. “Antimicrobial Combinations” in Antibiotics in Laboratory Medicine, edited by V. Lorian, 4th Ed., Williams & Wilkins, Baltimore, MD, pp. 330-396 (1996); […] et al., Antimicrobial Agents and Chemotherapy 47(4):1416-1418 (2003); or […] et al., Antimicrobial Agents and Chemotherapy 46(10):3323-3326 (2002). Procedures, protocols, supplies and equipment used in this assay follow the recommendations approved and published by the National Committee for Clinical Laboratory Standards (NCCLS), Wayne, Pa. as described in NCCLS 2003, “Reference Method for Broth Dilution Antimicrobial Susceptibility Tests for Bacteria that Grow Aerobically; Approved Standard” (NCCLS document M7-A6); NCCLS 2002, “Reference Method for Broth Dilution Antifungal Susceptibility Tests of Filamentous Fungi that Grow Aerobically; Approved Standard” (NCCLS document M38-A); and NCCLS 2002 “Reference Method for Broth Dilution Antifungal Susceptibility Tests of Yeast; Approved Standards-2nd Edition” (NCCLS document M27-A2). Using a checkerboard method, a 2-fold dilution 100× final concentration master plate was prepared using a 96-well U-shape microtiter plate and an appropriate solvent. In the “checkerboard” method, a microtiter plate is divided into “columns” in which each well in the column contains the same amount of an antifungal agent (Compound A) being diluted along the x-axis, and “rows” in which each well in the row contains the same amount of a glycopeptide antibacterial agent (Compound B) being diluted on the y-axis. Also included is a row (or column) for Compound A or B alone. The dilutions used in the checkerboard are exponential (by powers of two). The result is that each well in the microtiter plate contains a unique concentration of the two compounds being tested. […] After mixing, 100 μL of 2× drug combinations were distributed into 96-well microtiter plates. […] Compound A was not added to Column 12, so Column 12 contained only Compound B. Compound B was diluted from row A starting at 6,400 μg/mL down to row G (100 μg/mL). Wells in Row A contained a final concentration of 64 μg/mL of Compound B; Row B contained a final concentration of 32 μg/mL of Compound B; Row C contained a final concentration of 16 μg/mL of Compound B; etc. Compound B was not added to Row H, so Row H only contained Compound A. […] The MIC of the glycopeptide antibacterial agent determined from this experiment was used in FIC calculations. […] RPMI-1640 without sodium bicarbonate media (GIBCO-BRL, Carlsbad, Calif.), an enriched media formulated for mammalian cells, was used according to the NCCLS guidelines for yeast and filamentous fungi susceptibility testing. The medium was buffered with 0.165 M 3-[N-Morpholino]propanesulfonic acid (MOPS) supplemented with 20 g/L glucose and pH adjusted to 7.0 with hydrogen chloride. Sabouraud Dextrose Agar ([…] plates, and Potato Dextrose Agar (PDA) plates were purchased from Hardy Diagnostic (Santa Maria, Calif.). Yeast cultures were started from -80° C. frozen stock streaked on […] incubated at 35° C. under aerobic conditions for 24 h. The […] in the refrigerator for up to 2 weeks and used regularly as a starting culture. About 24 to 48 h before each assay was run, yeasts were streaked on SDA plates for isolated colonies. To prepare the inoculum, from one to four colonies were resuspended in 5 mL of saline, and vortexed for 15 sec. […] For most yeast and mold cultures, the optical density (OD) of the suspension was adjusted to 0.11 in saline to provide 0.4×10^6 CFU/mL. However, for Fusarium moniliforme and Pseudallescheria boydii the OD of the suspension was adjusted to OD=0.17 to provide 0.4×10^6 CFU/mL. […]

SMILES	FICI
C[C@@H]1[C@H](O)[C@@H](C)/C=C/C=C/C=C/C=C/C=C/C=C/C=C/[C@H](O[C@@H]2O[C@H](C)[C@@H](O)[C@H](N)[C@@H]2O)C[C@@H]2O[C@](O)(C[C@@H](O)C[C@@H](O)[C@H](O)CC[C@@H](O)C[C@@H](O)CC(=O)O[C@H]1C)C[C@H](O)[C@H]2C(=O)O [Amphotericin B]	0.27
C[C@@H]1[C@H](O)[C@@H](C)/C=C/C=C/CC/C=C/C=C/C=C/C=C/C(O[C@H]2O[C@H](C)[C@@H](O)[C@H](N)[C@@H]2O)CC2O[C@](O)(CC(O)C(O)CCC(O)CC(O)CC(O)CC(=O)O[C@H]1C)CC(O)C2C(=O)O (some centres unmarked) [Nystatin]	0.31
